Measurements: article PMC12775434, “Ultra-large virtual screening unveils potent agonists of the neuromodulatory orphan receptor GPR139” (Nature Communications, 2025)
“And” between values parts separate entries of the source, which are not always exact repeats. Identical values can stand only once.

Legend:
Format in all cases: cell-based
[1] = molecular target: T1, GPR139 (Homo sapiens, UniProt Q6DWJ6); experiment: Ca2+ mobilization assay, agonist mode, stable GPR139-CHOk1 cell line; details: for EC50 / Emax: Supplementary Table 2, mean ± SEM; for EC50: read-out: pEC50 Ca2+ (converted); for Emax: normalized to Lundbeck Cmp 1a, read-out: Emax (%) Ca2+
T1 sequence (Q6DWJ6 1-353): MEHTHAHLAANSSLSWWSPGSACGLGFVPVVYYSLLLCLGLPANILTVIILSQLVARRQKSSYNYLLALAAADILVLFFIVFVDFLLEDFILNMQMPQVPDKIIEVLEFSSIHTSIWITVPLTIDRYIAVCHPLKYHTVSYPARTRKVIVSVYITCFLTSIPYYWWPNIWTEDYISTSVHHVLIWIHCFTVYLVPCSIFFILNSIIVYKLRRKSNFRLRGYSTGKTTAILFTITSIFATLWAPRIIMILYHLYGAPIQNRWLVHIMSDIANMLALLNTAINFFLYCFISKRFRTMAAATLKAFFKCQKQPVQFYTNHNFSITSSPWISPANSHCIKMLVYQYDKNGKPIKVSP
Outline: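 Agonist activity of compounds is assessed in stably transfected CHO-K1 cells using the calcium dye Fluo-4 at 37 °C in HEPES-buffered HBSS (pH 7.4). Efficacy is expressed relative to the reference agonist Lundbeck Cmp 1a, set as 100%.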

[2] = molecular target: T1, GPR139; experiment: Ca2+ mobilization assay, antagonist mode (EC80 800 nM Lundbeck Cmp 1a after 20 min preincubation), GPR139-CHOk1
Outline: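 Antagonist mode: 800 nM (EC80) reference agonist Lundbeck Cmp 1a added following 20 min pre-incubation with 10 µM compound. GPR139-CHOk1 cells, Fluo-4 dye, probenecid-containing HEPES buffer pH 7.4; intracellular Ca2+ measured at 37 °C (ex 485, em 525 nm).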

[3] = molecular target: T2, human muscarinic acetylcholine M1 receptor (M1R) (Homo sapiens, UniProt P11229); experiment: Ca2+ mobilization counter-screen in M1R-CHOk1 cells;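 note: 10 µM test compound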
T2 sequence (P11229 1-460): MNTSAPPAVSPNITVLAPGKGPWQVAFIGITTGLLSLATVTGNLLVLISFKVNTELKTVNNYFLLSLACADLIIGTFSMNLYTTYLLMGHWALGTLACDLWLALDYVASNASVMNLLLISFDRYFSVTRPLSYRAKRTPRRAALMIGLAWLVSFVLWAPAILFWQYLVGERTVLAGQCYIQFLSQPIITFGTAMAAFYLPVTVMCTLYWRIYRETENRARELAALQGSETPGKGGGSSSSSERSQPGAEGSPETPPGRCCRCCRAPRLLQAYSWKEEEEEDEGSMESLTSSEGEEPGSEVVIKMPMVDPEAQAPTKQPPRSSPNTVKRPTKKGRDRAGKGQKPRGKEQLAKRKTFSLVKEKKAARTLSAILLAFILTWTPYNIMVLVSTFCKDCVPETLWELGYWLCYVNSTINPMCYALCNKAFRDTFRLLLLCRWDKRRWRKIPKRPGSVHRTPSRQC
Outline: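 Fluorescence (ex 485 nm, em 525 nm) recorded at 37 °C after automated compound addition to CHO-K1 cells stably expressing M1R. Cells were dye-loaded with 2 µM Fluo-4 AM for 1 h at 37 °C, with 2.5 mM probenecid present; final DMSO at most 0.3%.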

[4] = Agonist mode, individual replicates (Supplementary Figure 4)
[5] = log [Compound] M = -4.5, individual replicate columns
[6] = log [Compound] M = -5.0, individual replicate columns
[7] = log [Compound] M = -5.5, individual replicate columns
[8] = log [Compound] M = -6.0, individual replicate columns
[9] = log [Compound] M = -6.5, individual replicate columns
[10] = log [Compound] M = -7.0, individual replicate columns
[11] = log [Compound] M = -7.5, individual replicate columns
[12] = log [Compound] M = -8.0, individual replicate columns
[13] = log [Compound] M = -8.5, individual replicate columns
[14] = log [Compound] M = -9.0, individual replicate columns
[15] = individual replicates (Supplementary Figure 4)
[16] = individual replicates (Supplementary Figure 5)

SMILES	Ca2+ signal (% of Cmp 1a) [1, 4]	EC50 [1]	Emax [1]	Ca2+ signal (% of Cmp 1a) [1, 5]	Ca2+ signal (% of Cmp 1a) [1, 6]	Ca2+ signal (% of Cmp 1a) [1, 7]	Ca2+ signal (% of Cmp 1a) [1, 8]	Ca2+ signal (% of Cmp 1a) [1, 9]	Ca2+ signal (% of Cmp 1a) [1, 10]	Ca2+ signal (% of Cmp 1a) [1, 11]	Ca2+ signal (% of Cmp 1a) [1, 12]	Ca2+ signal (% of Cmp 1a) [1, 13]	Ca2+ signal (% of Cmp 1a) [1, 14]	Ca2+ signal (% of Cmp 1a) [2, 15]	Ca2+ signal (% of Carbachol) [3, 16]	further results
C[C@H](NC(=O)CN(CC1CC1)C(=O)OC(C)(C)C)c1ccccc1 [Compound 10, C[C@H](NC(=O)CN(CC1CC1)C(=O)OC(C)(C)C)C=2C=CC=CC2]	–	–	–	–	–	–	–	–	–	–	–	–	–	–	–	Ca2+ signal (% of Cmp 1a) ([1]; 0.1 µM, individual replicates (Supplementary Figure 3)): -1.5 % of Cmp 1a and 11.5 % of Cmp 1a; Ca2+ signal (% of Cmp 1a) ([1]; 1 µM, individual replicates (Supplementary Figure 3)): 2.4 % of Cmp 1a and 6.6 % of Cmp 1a; Ca2+ signal (% of Cmp 1a) ([1]; 10 µM, individual replicates (Supplementary Figure 3)): 39.5 % of Cmp 1a and 47.6 % of Cmp 1a; activation of GPR139 at three concentrations ([1]; 0.1, 1 and 10 µM, activity too low to reliably determine EC50): concentration-dependent activation of GPR139; Ca2+ signal (% of Cmp 1a) ([1]; Agonist mode, individual replicates (Supplementary Figure 1)): 58 % of Cmp 1a and 64 % of Cmp 1a and 72 % of Cmp 1a; Ca2+ signal (% of Cmp 1a) ([1]; primary screen, 10 µM compound, agonist mode, three columns = independent experiments): 58 % of Cmp 1a and 64 % of Cmp 1a and 72 % of Cmp 1a; Ca2+ signal (% of Cmp 1a) ([2]; individual replicates (Supplementary Figure 1)): 34.852 % of Cmp 1a and 42.0733 % of Cmp 1a and 46.5676 % of Cmp 1a; Ca2+ signal (% of Carbachol) ([3]; individual replicates (Supplementary Figure 2)): 3.79 % of Carbachol and -10 % of Carbachol
COc1csc(-c2nc(CC(=O)NC(C)c3ccccc3)no2)c1 (stereo not drawn) [Compound 1.39, COC1=CSC(=C1)C2=NC(CC(=O)NC(C)C=3C=CC=CC3)=NO2]	80 % of Cmp 1a and 95 % of Cmp 1a and 86 % of Cmp 1a	0.316 µM	123 ± 14%	120 % of Cmp 1a and 97 % of Cmp 1a and 133 % of Cmp 1a	130 % of Cmp 1a and 91 % of Cmp 1a and 148 % of Cmp 1a	122 % of Cmp 1a and 94 % of Cmp 1a and 152 % of Cmp 1a	98 % of Cmp 1a and 72 % of Cmp 1a and 114 % of Cmp 1a	73 % of Cmp 1a and 44 % of Cmp 1a and 79 % of Cmp 1a	38 % of Cmp 1a and 21 % of Cmp 1a and 34 % of Cmp 1a	20 % of Cmp 1a and 15 % of Cmp 1a and 2 % of Cmp 1a	16 % of Cmp 1a and 17 % of Cmp 1a and -3.33 % of Cmp 1a	7 % of Cmp 1a and 12 % of Cmp 1a and -8 % of Cmp 1a	15 % of Cmp 1a and 20 % of Cmp 1a and 0.667 % of Cmp 1a	-8 % of Cmp 1a and 12 % of Cmp 1a and -11 % of Cmp 1a	-14 % of Carbachol and -1 % of Carbachol and -5.33 % of Carbachol	–
COc1ccc(-c2nc(CC(=O)NC(C)c3ccccc3)no2)cn1 (stereo not drawn) [Compound 1.26, COC1=NC=C(C2=NC(CC(NC(C3=CC=CC=C3)C)=O)=NO2)C=C1]	85 % of Cmp 1a and 87 % of Cmp 1a and 69 % of Cmp 1a	2 µM	94 ± 9%	87 % of Cmp 1a and 80 % of Cmp 1a and 98 % of Cmp 1a	81 % of Cmp 1a and 61 % of Cmp 1a and 119 % of Cmp 1a	56 % of Cmp 1a and 44 % of Cmp 1a and 97 % of Cmp 1a	34 % of Cmp 1a and 6.33 % of Cmp 1a and 46 % of Cmp 1a	12 % of Cmp 1a and -9 % of Cmp 1a and 7 % of Cmp 1a	8 % of Cmp 1a and 3 % of Cmp 1a and 10 % of Cmp 1a	2.67 % of Cmp 1a and 0 % of Cmp 1a and -4.67 % of Cmp 1a	-9 % of Cmp 1a (2×) and 6.33 % of Cmp 1a	1 % of Cmp 1a and -7 % of Cmp 1a and 3.33 % of Cmp 1a	-3.33 % of Cmp 1a and -8 % of Cmp 1a and 15 % of Cmp 1a	29 % of Cmp 1a and 2 % of Cmp 1a and 52 % of Cmp 1a	-15 % of Carbachol and -8 % of Carbachol and 11 % of Carbachol	–
Cc1cc(-c2nc(CC(=O)NC(C)c3ccccc3)no2)ccn1 (stereo not drawn) [Compound 1.19, CC(C1=CC=CC=C1)NC(CC2=NOC(C3=CC(C)=NC=C3)=N2)=O]	76 % of Cmp 1a and 74 % of Cmp 1a and 71 % of Cmp 1a	1 µM	109 ± 10%	117 % of Cmp 1a and 90 % of Cmp 1a and 116 % of Cmp 1a	97 % of Cmp 1a and 89 % of Cmp 1a and 99 % of Cmp 1a	77 % of Cmp 1a and 75 % of Cmp 1a and 88 % of Cmp 1a	61 % of Cmp 1a and 62 % of Cmp 1a and 60 % of Cmp 1a	30 % of Cmp 1a and 19 % of Cmp 1a and 26 % of Cmp 1a	9 % of Cmp 1a and 6.33 % of Cmp 1a and 5.33 % of Cmp 1a	4.67 % of Cmp 1a and 0.667 % of Cmp 1a and -2.67 % of Cmp 1a	3 % of Cmp 1a and -3.33 % of Cmp 1a and -3.67 % of Cmp 1a	13 % of Cmp 1a and -4.67 % of Cmp 1a and 2.33 % of Cmp 1a	7 % of Cmp 1a and -8 % of Cmp 1a and -1.33 % of Cmp 1a	5.67 % of Cmp 1a and -2 % of Cmp 1a and -8 % of Cmp 1a	8 % of Carbachol and -12 % of Carbachol and 7 % of Carbachol	fold decrease in potency relative to a similar phenyl substituted compound (1.3) ([1]; Ca2+ mobilization EC50): 4- to 16 fold
COc1ccc(-c2nc(CC(=O)NC(C)c3ccccc3)no2)nc1 (stereo not drawn) [Compound 1.35, COC1=CN=C(C2=NC(CC(NC(C3=CC=CC=C3)C)=O)=NO2)C=C1]	54 % of Cmp 1a and 78 % of Cmp 1a and 29 % of Cmp 1a	5.01 µM	101 ± 5%	94 % of Cmp 1a and 90 % of Cmp 1a and 98 % of Cmp 1a and 75 % of Cmp 1a	78 % of Cmp 1a and 80 % of Cmp 1a (2×) and 38 % of Cmp 1a	47 % of Cmp 1a and 55 % of Cmp 1a and 66 % of Cmp 1a and 27 % of Cmp 1a	20 % of Cmp 1a and 21 % of Cmp 1a and 51 % of Cmp 1a and 17 % of Cmp 1a	-3 % of Cmp 1a and 8 % of Cmp 1a and 26 % of Cmp 1a and 20 % of Cmp 1a	1.67 % of Cmp 1a and -1.67 % of Cmp 1a and 26 % of Cmp 1a and 31 % of Cmp 1a	2.67 % of Cmp 1a and 5.33 % of Cmp 1a and 16 % of Cmp 1a and 34 % of Cmp 1a	-2 % of Cmp 1a and 11 % of Cmp 1a and 29 % of Cmp 1a and 25 % of Cmp 1a	-6 % of Cmp 1a and 3 % of Cmp 1a and 17 % of Cmp 1a and -0.333 % of Cmp 1a	2 % of Cmp 1a and 4.67 % of Cmp 1a and 12 % of Cmp 1a and -2 % of Cmp 1a	28 % of Cmp 1a and 18 % of Cmp 1a and 35 % of Cmp 1a	7 % of Carbachol and 14 % of Carbachol and 10 % of Carbachol	–
